Measured values taken from US20100249145A1, “Inhibitors of VEGF Receptor and HGF Receptor Signaling” (Methylgene, Inc., priority 2005, published 2010).
pIC50: −log10 of the molar value.

Columns and labels:
[1] = test system: A549; test: A549 wound healing inhibition (HGF dependent migration); assay type: cell-based; details: Homo sapiens, Table 31, read-out: A549 wound healing inbib IC50
Description: (§1) HGF has well known activity in terms of inducing scattering and migration (wound healing) (Wells et al., Cell Motil Cytoskeleton. 2005 November 62(3):180-94; Miura et al., Urology 2001 December 58(6):1064-9; Nishimura et al., Int J. Urol. 1998 May 5(3):276-81; Wang et al., Mol Cancer Ther. 2003 November; 2(11):1085-92; and Christensen et al., Cancer Res. 2003 Nov. 1; 63(21):7345-55).

[2] = molecular target: T1, recombinant human c-Met/HGF receptor (Homo sapiens, UniProt P08581); test: In vitro receptor tyrosine kinase assay (DELFIA), c-Met/HGF receptor; assay type: biochemical; details: Table 31; ATP 10 uM, enzyme 25 nM; read-out: CMet ic50
T1 construct: His tag (histidine tag from pBlueBacHis2A); made in house; host or cells: Hi-5 cells (Trichoplusia ni), recombinant baculovirus

[3] = test system: DU145; test: DU145 scattering inhibition (HGF dependent scattering); assay type: cell-based; details: Homo sapiens, DU-145, Table 31, read-out: DU145 scattering inhib IC50
Description: as §1

[4] = molecular target: T2, VEGF receptor KDR (Homo sapiens, UniProt P35968); test: In vitro receptor tyrosine kinase assay (DELFIA), VEGF receptor KDR; assay type: biochemical; details: Table 31; ATP 0.6 uM, enzyme 5 nM; read-out: VEGFR IC50
T2 construct: made in house; host or cells: Sf9 cells (Spodoptera frugiperda), recombinant baculovirus
Description: In Vitro Receptor Tyrosine Kinase Assays (c-Met/HGF receptor and VEGF Receptor KDR)
In the case of VEGF receptor KDR a 1.6-kb cDNA corresponding to the catalytic domain of VEGFR2 or KDR (Genbank accession number AF035121 amino acid 806 to 1356) was cloned into the Pst I site of the pDEST20 Gateway vector (Invitrogen) for the production of a GST-tagged version of that enzyme.
The GST-VEGFR2806-1356 protein was expressed in Sf9 cells (Spodoptera frugiperda) upon infection with recombinant baculovirus construct.
The supernatant was loaded onto a GST-agarose column (Sigma) equilibrated with PBS pH 7.3. Following a four column volume (CV) wash with PBS pH 7.3+1% Triton X-100 and 4 CV wash with buffer B (50 mM Tris pH 8.0, 20% glycerol and 100 mM NaCl), bound proteins were step eluted with 5 CV of buffer B supplemented with 5 mM DTT and 15 mM glutathion. […] Final GST-VEGFR2806-1356 protein preparations concentrations were about 0.7 mg/ml with purity approximating 70%.

T1 sequence (P08581 1078-1337): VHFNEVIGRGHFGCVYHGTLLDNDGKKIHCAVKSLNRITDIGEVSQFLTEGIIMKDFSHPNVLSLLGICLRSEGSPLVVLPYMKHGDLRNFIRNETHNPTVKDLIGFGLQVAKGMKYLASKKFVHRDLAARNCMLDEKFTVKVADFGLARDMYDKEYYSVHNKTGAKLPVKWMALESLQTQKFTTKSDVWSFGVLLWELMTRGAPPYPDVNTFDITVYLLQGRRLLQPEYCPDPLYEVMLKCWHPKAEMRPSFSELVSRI
T2 sequence (P35968 806-1356): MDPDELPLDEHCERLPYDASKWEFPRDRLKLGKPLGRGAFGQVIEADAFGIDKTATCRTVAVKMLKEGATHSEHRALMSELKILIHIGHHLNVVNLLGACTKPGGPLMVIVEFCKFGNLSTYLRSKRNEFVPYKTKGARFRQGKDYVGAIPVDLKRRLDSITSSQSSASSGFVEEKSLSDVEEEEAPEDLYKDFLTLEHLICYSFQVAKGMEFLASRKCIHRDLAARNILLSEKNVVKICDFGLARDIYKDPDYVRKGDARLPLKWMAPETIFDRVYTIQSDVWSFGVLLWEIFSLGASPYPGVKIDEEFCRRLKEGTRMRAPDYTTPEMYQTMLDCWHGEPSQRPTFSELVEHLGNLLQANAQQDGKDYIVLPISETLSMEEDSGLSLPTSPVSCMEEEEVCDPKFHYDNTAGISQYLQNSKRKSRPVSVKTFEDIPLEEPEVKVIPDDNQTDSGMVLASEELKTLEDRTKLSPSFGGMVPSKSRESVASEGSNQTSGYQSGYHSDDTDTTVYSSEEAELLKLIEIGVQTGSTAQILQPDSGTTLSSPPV

| Compound | pIC50 [1] | pIC50 [2] | pIC50 [3] | pIC50 [4] |
| --- | --- | --- | --- | --- |
| C#Cc1cccc(CC(=O)NC(=S)Nc2ccc(Oc3ccnc4cc(-c5cn(C)cn5)sc34)c(F)c2)c1 | 5.30 to 6.00 | > 7.30 | 5.30 to 6.00 | > 7.30 |
| C#Cc1ccc(CC(=O)NC(=S)Nc2ccc(Oc3ccnc4cc(-c5cn(CC)cn5)sc34)c(F)c2)cc1 | 5.30 to 6.00 | 6.60 to 7.30 | 5.30 to 6.00 | > 7.30 |
| C=C(F)c1cccc(CC(=O)NC(=S)Nc2ccc(Oc3ccnc4cc(-c5cn(C)cn5)sc34)c(F)c2)c1 | 5.30 to 6.00 | 6.60 to 7.30 | 5.30 to 6.00 | 6.60 to 7.30 |
| C#Cc1cc(F)ccc1CC(=O)NC(=S)Nc1ccc(Oc2ccnc3cc(-c4ccc(CN5CCN(C)CC5)cc4)sc23)c(F)c1 | 5.30 to 6.00 | > 7.30 | > 6.00 | > 7.30 |
| C#Cc1ccc(CC(=O)NC(=S)Nc2ccc(Oc3ccnc4cc(-c5cn(CCN6CCCC6)cn5)sc34)c(F)c2)cc1 | < 5.00 | 6.60 to 7.30 | < 5.00 | > 7.30 |
| C#Cc1ccc(F)c(CC(=O)NC(=S)Nc2ccc(Oc3ccnc4cc(-c5cn(C)cn5)sc34)c(F)c2)c1 | 5.30 to 6.00 | > 7.30 | 5.30 to 6.00 | > 7.30 |
| COc1cccc(Nc2cc3nccc(Oc4ccc(NC(=S)NC(=O)Cc5ccccc5OC)cc4F)c3s2)c1 | 5.30 to 6.00 | 6.60 to 7.30 | 5.30 to 6.00 | < 6.30 |
| C#Cc1ccc(CC(=O)NC(=S)Nc2ccc(Oc3ccnc4cc(-c5nccn5C)sc34)c(F)c2)cc1 | 5.30 to 6.00 | 6.60 to 7.30 | < 5.00 | 6.60 to 7.30 |
| C#Cc1cc(F)ccc1CC(=O)NC(=S)Nc1ccc(Oc2ccnc3cc(-c4cn(CC)cn4)sc23)c(F)c1 | > 6.00 | > 7.30 | > 6.00 | > 7.30 |
| C#Cc1ccc(CC(=O)NC(=S)Nc2ccc(Oc3ccnc4cc(-c5cn(CC)cn5)sc34)c(F)c2)cc1F | < 5.00 | 6.60 to 7.30 | 5.30 to 6.00 | > 7.30 |
| CN(c1ccc(NC(=S)NC(=O)Cc2ccccc2)cc1F)c1ccnc2ccsc12 | 5.00 to 5.30 | 6.30 to 6.60 | 5.00 to 5.30 | < 6.30 |
| CN(c1ccc(NC(=S)NC(=O)Cc2ccccc2)cc1F)c1ccnc2cc(-c3cn(C)cn3)sc12 | > 6.00 | > 7.30 | > 6.00 | < 6.30 |
| CNC(=O)N1CCN(Cc2ccc(-c3cc4nccc(Oc5ccc(NC(=S)NC(=O)Cc6ccc(F)cc6)cc5F)c4s3)cc2)CC1 | > 6.00 | > 7.30 | > 6.00 | > 7.30 |
| Cc1ccccc1CC(=O)NC(=S)Nc1ccc(Oc2ccnc3cc(-c4nccn4C)sc23)c(F)c1 | > 6.00 | > 7.30 | > 6.00 | > 7.30 |
| CCn1ccnc1-c1cc2nccc(Oc3ccc(NC(=S)NC(=O)Cc4ccc(F)cc4F)cc3F)c2s1 | > 6.00 | > 7.30 | > 6.00 | 6.60 to 7.30 |
| CN1CCN(Cc2ccc(-c3cc4nccc(Oc5ccc(NC(=S)NC(=O)Cc6ccccc6)cc5F)c4s3)nc2)CC1 | > 6.00 | > 7.30 | > 6.00 | > 7.30 |

Results, then the molecule that gave them:

| pIC50 [1] | pIC50 [2] | pIC50 [3] | pIC50 [4] | Compound |
| --- | --- | --- | --- | --- |
| > 6.00 | > 7.30 | > 6.00 | 6.30 to 6.60 | COCCNCc1cccc(-c2cc3nccc(Oc4ccc(NC(=S)NC(=O)Cc5ccc(F)cc5)cc4F)c3s2)n1 |
| > 6.00 | 6.60 to 7.30 | > 6.00 | 6.60 to 7.30 | CC(C(=O)NC(=S)Nc1ccc(Oc2ccnc3cc(-c4nccn4C)sc23)c(F)c1)c1ccccc1 (stereo not shown) |
| > 6.00 | > 7.30 | > 6.00 | > 7.30 | CCNC(=O)N1CCN(Cc2ccc(-c3cc4nccc(Oc5ccc(NC(=S)NC(=O)Cc6ccccc6)cc5F)c4s3)cc2)CC1 |
| > 6.00 | > 7.30 | > 6.00 | 6.60 to 7.30 | O=C(Cc1ccc(F)cc1)NC(=S)Nc1ccc(Oc2ccnc3cc(-c4cc[n+]([O-])cc4)sc23)c(F)c1 |
| > 6.00 | > 7.30 | > 6.00 | 6.60 to 7.30 | C#Cc1cc(F)ccc1CC(=O)NC(=S)Nc1ccc(Oc2ccnc3cc(C4=CCN(C)CC4)sc23)c(F)c1 |
| > 6.00 | > 7.30 | > 6.00 | > 7.30 | CN(CCO)Cc1ccc(-c2cc3nccc(Oc4ccc(NC(=S)NC(=O)Cc5ccccc5)cc4F)c3s2)cc1 |
| > 6.00 | > 7.30 | > 6.00 | > 7.30 | C#Cc1cc(F)ccc1CC(=O)NC(=S)Nc1ccc(Oc2ccnc3cc(-c4nccn4C)sc23)c(F)c1 |
| > 6.00 | > 7.30 | > 6.00 | > 7.30 | COCCNCc1ccc(-c2cc3nccc(Oc4ccc(NC(=S)NC(=O)Cc5ccc(F)cc5)cc4F)c3s2)cc1 |
| > 6.00 | > 7.30 | > 6.00 | > 7.30 | CN1CCN(Cc2ccc(-c3cc4nccc(Oc5ccc(NC(=S)NC(=O)Cc6ccccc6)cc5F)c4s3)cc2)CC1 |
| > 6.00 | > 7.30 | > 6.00 | > 7.30 | CN1CCN(CCN(C)Cc2ccc(-c3cc4nccc(Oc5ccc(NC(=S)NC(=O)Cc6ccccc6)cc5F)c4s3)cc2)CC1 |
| > 6.00 | > 7.30 | > 6.00 | > 7.30 | C#Cc1ccccc1CC(=O)NC(=S)Nc1ccc(Oc2ccnc3cc(-c4nccn4C)sc23)c(F)c1 |
| > 6.00 | > 7.30 | > 6.00 | > 7.30 | CCn1cnc(-c2cc3nccc(Oc4ccc(NC(=S)NC(=O)Cc5cccc(F)c5)cc4F)c3s2)c1 |
| > 6.00 | > 7.30 | > 6.00 | > 7.30 | CCn1ccnc1-c1cc2nccc(Oc3ccc(NC(=S)NC(=O)Cc4ccc(F)cc4)cc3F)c2s1 |
| > 6.00 | > 7.30 | > 6.00 | 6.30 to 6.60 | CN1CC=C(c2cc3nccc(Oc4ccc(NC(=S)NC(=O)Cc5ccccc5)cc4F)c3s2)CC1 |
| > 6.00 | > 7.30 | > 6.00 | > 7.30 | C#Cc1cc(F)ccc1CC(=O)NC(=S)Nc1ccc(Oc2ccnc3cc(-c4cn(CCN5CCCC5)cn4)sc23)c(F)c1 |
| > 6.00 | 6.60 to 7.30 | 5.30 to 6.00 | < 6.30 | O=C(Cc1ccccc1)NC(=S)Nc1ccc(Nc2ccnc3ccsc23)c(F)c1 |
| > 6.00 | > 7.30 | > 6.00 | > 7.30 | CN(C)C(=O)c1ccc(-c2cc3nccc(Oc4ccc(NC(=S)NC(=O)Cc5ccc(F)cc5)cc4F)c3s2)cc1 |
| > 6.00 | > 7.30 | > 6.00 | > 7.30 | CNC(=O)N1CCN(Cc2ccc(-c3cc4nccc(Oc5ccc(NC(=S)NC(=O)Cc6ccccc6)cc5F)c4s3)cc2)CC1 |
| > 6.00 | > 7.30 | > 6.00 | 6.60 to 7.30 | CS(=O)(=O)c1ccc(-c2cc3nccc(Oc4ccc(NC(=S)NC(=O)Cc5ccc(F)cc5)cc4F)c3s2)cc1 |
| > 6.00 | > 7.30 | > 6.00 | > 7.30 | O=C(Cc1ccc(F)cc1)NC(=S)Nc1ccc(Oc2ccnc3cc(-c4cccc[n+]4[O-])sc23)c(F)c1 |
| > 6.00 | > 7.30 | > 6.00 | 6.60 to 7.30 | COCCNCc1ccc(-c2cc3nccc(Oc4ccc(NC(=O)NC(=O)Cc5ccc(F)cc5)cc4F)c3s2)cc1 |
